The values below come from patent US7625936B2, “Mitotic kinesin inhibitors” (Merck & Co. Inc., priority 2005, dated 2009).

Molecules are shown by their SMILES.

The experiment concerns the target T1, human KSP motor domain (KSP(367H)) (Homo sapiens, UniProt P52732).
T1 construct: were used to amplify the motor domain and the neck linker region; made in house; host or cells: E. coli BL21 (DE3), vector pRSETa
T1 sequence (P52732 1-367): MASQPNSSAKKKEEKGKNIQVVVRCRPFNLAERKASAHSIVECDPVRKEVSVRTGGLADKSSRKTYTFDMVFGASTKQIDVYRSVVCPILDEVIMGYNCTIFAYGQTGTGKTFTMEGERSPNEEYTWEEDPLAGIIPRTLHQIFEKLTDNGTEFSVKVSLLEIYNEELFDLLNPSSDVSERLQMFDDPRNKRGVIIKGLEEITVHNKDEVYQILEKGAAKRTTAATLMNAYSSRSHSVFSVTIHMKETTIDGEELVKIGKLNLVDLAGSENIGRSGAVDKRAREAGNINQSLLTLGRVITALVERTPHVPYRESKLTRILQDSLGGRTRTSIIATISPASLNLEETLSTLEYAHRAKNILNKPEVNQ
In words: Kinesin ATPase in vitro assay. The format is biochemical. As to conditions: kinesin motor domain incubated with microtubules, 1 mM ATP and compound at 23° C.; free phosphate by quinaldine red/ammonium molybdate, absorbance 540 nm. An excerpt:
I. Kinesin ATPase In Vitro Assay
Cloning and Expression of Human Poly-Histidine Tagged KSP Motor Domain (KSP(367H))
Plasmids for the expression of the human KSP motor domain construct were cloned by PCR using a pBluescript full length human KSP construct (Blangy et al., Cell, vol. 83, pp 1159-1169, 1995) as a template. The N-terminal primer 5′-[…] (SEQ.ID.NO.: 1) and the C-terminal primer 5′-[…] […] (SEQ.ID.NO.: 2)were used to amplify the motor domain and the neck linker region. The PCR products were digested with AseI and XhoI, ligated into the NdeI/XhoI digestion product of pRSETa (Invitrogen) and transformed into E. coli BL21 (DE3).
Cells were grown at 37° C. to an OD600 of 0.5. […]
The kinesin motor domain is incubated with microtubules, 1 mM ATP (1:1 MgCl2: Na-ATP), and compound at 23° C. in buffer containing 80 mM K-HEPES (pH 7.0), 1 mM EGTA, 1 mM DTT, 1 mM MgCl2, and 50 mM KCl. […] Free phosphate from the ATP hydrolysis reaction is measured via a quinaldine red/ammonium molybdate assay by adding 150 μl of quench C buffer containing a 2:1 ratio of quench A:quench B. Quench A contains 0.1 mg/ml quinaldine red and 0.14% polyvinyl alcohol; quench B contains 12.3 mM ammonium molybdate tetrahydrate in 1.15 M sulfuric acid. The reaction is incubated for 10 minutes at 23° C., and the absorbance of the phospho-molybdate complex is measured at 540 nm.

Regarding `CC(=O)N1N=C(c2cc(F)ccc2F)CC1(CC[Si](C)(C)O)c1ccccc1` (centres unmarked) [Compound 1-5, {2-[1-acetyl-3-(2,5-difluorophenyl)-5-phenyl-4,5-dihydro-1H-pyrazol-5-yl]ethyl}(dimethyl)silanol], the IC50 was at most 50 µM. The result for `CC(=O)N1CCN(CCC[C@@]2(c3ccccc3)CC(c3cc([Si](C)(C)C)ccc3F)=NN2C(C)=O)CC1` [Compound 3-8, 1-acetyl-4-(3-{(5S)-1-acetyl-3-[2-fluoro-5-(trimethylsilyl)phenyl]-5-phenyl-4,5-dihydro-1H-pyrazol-5-yl}propyl)piperazine] reads at most 50 µM.

For orientation: IC50 means the midpoint of a concentration-inhibition curve. Read a low IC50 as greater potency in that assay.
